The conditions of series [1]: cited from earlier work.
Series [2] relates to TMANO. The series can be described thus: TMANO concentration in blood plasma of healthy volunteers on a TMANO source rich diet (UPLC-MS/MS). It is filed as in vivo, human. The settings on record: for TMANO concentration in study participant's blood plasma: healthy volunteers (n=8), after 7 days TMANO source rich diet (150 g fish/day) with oral Meldonium 500 mg twice a day, mean ± SEM, diet alone 81.5 ± 8.6, baseline 4.9 ± 1.3, dihydrate. The procedure:
(§1) Eight healthy volunteers were involved in the study, 4 women and 4 men. The study was conducted in accordance with the Declaration of Helsinki, and with bioethical norms approved by the Central Committee of Medical Ethics. All study participants have signed informed consent forms. Exclusion criteria for participation in the study were: the use of dietary supplements, smoking, pregnancy and alcohol addiction. At the study beginning information about the participant's age, medication use, height and weight was recorded.
Then, a venous blood sample and evening and morning urine samples were collected from the study participants. At the first stage of experiment, all participants received 150 grams of fish for lunch, once a day, during 7 days, which served as a source of TMANO increased formation in the body (W. J. Dyer. Amines in Fish Muscle. VI. Trimethylamine Oxide Content of Fish and Marine Invertebrates, Journal of the Fisheries Research Board of Canada, 8c(5): 314-324, 10.1139/f50-020, 1952).
During the next stage of experiment, to determine the effect of Meldonium on TMANO concentration in blood plasma and urine, in addition to trimethylamine-rich food source, a pharmaceutical composition containing 500 mg of Meldonium was administered to each study participant during 7 days, twice a day (morning and evening). […]
(§2) TMANO concentration in plasma and urine samples was determined by ultrahigh performance liquid chromatography-tandem mass spectrometry method. […] TMANO detection and quantification was performed using Quattro Micro™ spectrometer (Micromass) in an ion reaction monitoring (TMANO ion transition m/z75.8>m/z58.3, IS ion transition m/z175.4>m/z86.0) positive electrospraying mode (cone voltage 26V, collision energy 14 eV, collision gas—argon). […]
TMANO concentration in the sample was calculated using the linear relationship TMANO peak area/IS peak area—TMANO concentration using the data processing software QuanLynx V4.1 (Waters). […]

The subject of series [3] is TMANO. The series can be described thus: Total amount of TMANO excreted with urine during 7 days, healthy volunteers on a TMANO source rich diet (UPLC-MS/MS, creatinine by Jaffe method). Conditions: for Total excreted with urine TMANO amount during 7 days: healthy volunteers (n=8), 7 days TMANO source rich diet with oral Meldonium 1 g/day, area under the curve, mean ± SEM, diet alone 18.2 ± 2.2, baseline 2.8 ± 0.6, dihydrate. The series is classed as in vivo, human. The method, then:
as §1
Then, a venous blood sample and evening and morning urine samples were collected from the study participants. At the first stage of experiment, all participants received 150 grams of fish for lunch, once a day, during 7 days, which served as a source of TMANO increased formation in the body (W. J. Dyer. Amines in Fish Muscle. VI. Trimethylamine Oxide Content of Fish and Marine Invertebrates, Journal of the Fisheries Research Board of Canada, 8c(5): 314-324, 10.1139/f50-020, 1952). […]
as §2
TMANO concentration in the sample was calculated using the linear relationship TMANO peak area/IS peak area—TMANO concentration using the data processing software QuanLynx V4.1 (Waters).
Creatinine concentration was calculated by slightly modified Jaffe method (Jaffe M. Ueber die Niederschlag, welchen Pikrinsaure in normalem Ham erzeugt and uber eine neue Reaction des Kreatinins. Z physiol Chem 1886; 10: 391-400). […] After 10 min of incubation at room temperature the absorbance was measured at 492 nm with a μQuant™ multiwell plate […] spectrophotometer (Biotek Instruments, USA). […]

Each structure is given as a SMILES string. Marks after values point to notes of the source that are not given here.

Consider `C[N+](C)(C)NCCC(=O)[O-]` [Meldonium, 3-(2,2,2-trimethyhydrazinium)propionate dihydrate], for which the Solubility in water result in series [1] was “easily soluble in water”. Besides, the “Reduction of TMANO plasma concentration” value in the series on TMANO [2] (7 days oral Meldonium 500 mg twice a day with TMANO-rich food, compared with TMANO level before Meldonium use, statistically significant) is listed as 47%. Moreover, the “TMANO concentration in study participant's blood plasma” value with TMANO [2] is 43.0 ± 3.8 nmol/mL; in the series with TMANO [2] (listed as TMANO + Meldonium), 43.0 ± 3.8*^,# nmol/ml. Further, the “Increase of urine excreted TMANO amount” value in the series on TMANO [3] (7 days oral Meldonium 500 mg twice a day with TMANO-rich food, versus before Meldonium use, statistically significant) is reported as “about 25%”. The “Total excreted with urine TMANO amount during 7 days” value is given as 24.3±1.5 μmol/mg creatinine *7 d in the series on TMANO [3] and 24.3 ± 1.5*^,# μmol/mg creatinine *7 d in the series with TMANO [3] (listed as TMANO + Meldonium).

(Values after US20150313862A1, “"Pharmaceutical composition for reducing the trimethylamine N-oxide level"” (Latvian Institute of Organic Synthesis, priority 2012, published 2015).)
